Holding throughout (assay): DTP human tumour cell line panel, 48 h
Assay [1] relates to CAKI-1.
In assay [2] the test system is NCI-H226.
Assay [3] concerns UACC-62.
The subject of assay [4] is SF-268.
In assay [5] the test system is COLO 205.
The test system of assay [6] is OVCAR-3.
The test system of assay [7] is OVCAR-8.
The test system of assay [8] is SN12C.
Assay [9] relates to MOLT-4.
Assay [10] has as its system DU-145.
Assay [11] relates to HOP-62.
The test system of assay [12] is MDA-MB-231.
For assay [13], the system named is SR.
For assay [14], the system named is Malme-3M.
The subject of assay [15] is SK-OV-3.
For assay [16], the system named is HL-60.
In assay [17] the test system is PC-3.
Assay [18] relates to NCI-H522.
For assay [19], the system named is RXF 393.
The test system of assay [20] is Hs-578T.

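Where inhibition never reached the appropriate level, the endpoint shown equals the highest concentration tested. Otherwise, values were interpolated linearly from a five-concentration, 48-hour dose response in 96-well plates. Abbreviation: GI50, concentration required for 50% inhibition of growth.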 Active and inactive are the calls of the source. No stated cut-off is given here; in the data, active = GI50 up to about 1.1 µM and inactive = higher.

On to `CC(C)O/N=C/c1cc(NC(=S)OC(C)C)ccc1Cl`, for which the GI50 (as a rule, the concentration at which growth is held to half of that of the control) in assay [1] was 22.9 µM (inactive); in assay [2], 28.8 µM (inactive); in [3], 29.7 µM (inactive); in assay [4], 36.1 µM (inactive); in [5] it was 56.8 µM (inactive); in assay [6], 32.5 µM (inactive). For the same compound, the GI50 in assay [7] is 36.9 µM (inactive); in assay [8], 31.6 µM (inactive); in [9] it was 15.8 µM (inactive); in [10], > 65.5 µM (inactive); in assay [11], 37.8 µM (inactive); in assay [12] it was 19.1 µM (inactive). In addition, the GI50 in [13] is 16.1 µM (inactive); in assay [14], > 91.8 µM (inactive); in assay [15] it was 38.8 µM (inactive); in assay [16] it was 20.4 µM (inactive); in [17] it was 36.8 µM (inactive); in [18], 26 µM (inactive). Moreover, the values for the GI50 in assay [19] and in assay [20] were 20.6 µM (inactive) and 30.1 µM (inactive), respectively.

Regarding `CCOC(=O)C(SCCO)C(C(=O)OCC)n1cc(C)c(=O)[nH]c1=O` (stereo not given), the GI50 in [1] was 4.44 µM (inactive); in assay [2], > 32.7 µM (inactive); in assay [3], 16.3 µM (inactive); in [4] it was 29.3 µM (inactive); in assay [5] it was 10 µM (inactive); in [6], 12.5 µM (inactive). The GI50 in [7] was 14.1 µM (inactive); in assay [8], 10.7 µM (inactive); in [9], 4.81 µM (inactive); in assay [10] it was > 74.6 µM (inactive); in [11], > 61.2 µM (inactive); in assay [12] it was 15.9 µM (inactive). Moreover, the GI50 in assay [13] was 6.92 µM (inactive); in [14] it was 15.4 µM (inactive); in assay [15] it was > 79.3 µM (inactive); in [16], 2.12 µM (inactive); in assay [17] it was 13.9 µM (inactive); in assay [18], 3.3 µM (inactive). The GI50 was 17 µM (inactive) in assay [19] and 63.4 µM (inactive) in assay [20].

For `C=C(Br)C[N+]12CN3CN(CN(C3)C1)C2`, the GI50 in assay [1], in assay [2], in assay [3], in assay [4], in assay [5] and in [6] was > 100 µM (inactive) throughout. Also, the GI50 in assay [7], in assay [8], in assay [9], in assay [10], in assay [11] and in [12] was > 100 µM (inactive) in each case. Further, the GI50 in [13], in assay [14], in assay [15], in assay [16], in assay [17] and in assay [18] was > 100 µM (inactive) in each case. Further, the GI50 in assay [19] and in assay [20] was > 100 µM (inactive) in each case.

For the compound `CNC(=S)NNc1ncnc2c1c(-c1ccc(Cl)cc1)cn2-c1ccc(C)cc1`, the GI50 in [1] was 8.07 µM (inactive); in assay [2], 24.6 µM (inactive); in [3], 14.5 µM (inactive); in [4], 10.2 µM (inactive); in [5] it was 14.3 µM (inactive); in assay [6], 11.5 µM (inactive). Further, the GI50 is 9.48 µM (inactive) in assay [7]; 11.1 µM (inactive) in assay [8]; 3.85 µM (inactive) in assay [9]; 14.8 µM (inactive) in assay [10]; 17.6 µM (inactive) in assay [11]; 7.8 µM (inactive) in assay [12]. The GI50 in assay [13] was 2.21 µM (inactive); in [14] it was 13.1 µM (inactive); in assay [15] it was 15 µM (inactive); in assay [16], 2.81 µM (inactive); in assay [17], 5.45 µM (inactive); in assay [18], 7.76 µM (inactive). Further, the GI50 in assay [19] was 16.4 µM (inactive); in assay [20], 20.9 µM (inactive).

In the case of `O=C(OC1CN2CCC1CC2)N(c1ccccc1)c1ccccc1` (stereo not given), the GI50 was > 100 µM (inactive) in assay [1]; > 100 µM (inactive) in assay [2]; 65 µM (inactive) in [3]; > 100 µM (inactive) in assay [4]; 43.1 µM (inactive) in assay [5]; > 100 µM (inactive) in assay [6]. The GI50 was > 100 µM (inactive) in assay [7]; > 100 µM (inactive) in [8]; 43.1 µM (inactive) in [9]; > 100 µM (inactive) in [10]; 80.5 µM (inactive) in assay [11]; 54 µM (inactive) in assay [12]. Further, the GI50 in assay [13] was 4.61 µM (inactive); in assay [14], > 100 µM (inactive); in assay [15], > 100 µM (inactive); in assay [16], 24.9 µM (inactive); in assay [17] it was 69.2 µM (inactive); in assay [18] it was > 100 µM (inactive). The GI50 in assay [19] was 50.1 µM (inactive); in [20] it was > 100 µM (inactive).

Regarding `c1n[nH]cc1C12C3C4C5C3C1C5C42` (stereo not given), the GI50 in [1], in [2], in assay [3], in assay [4], in assay [5] and in [6] was > 100 µM (inactive) throughout. For the same compound, the GI50 in assay [7], in assay [8], in [9], in assay [10], in [11] and in [12] was > 100 µM (inactive) throughout. For the same compound, the GI50 was > 100 µM (inactive) in assay [13]; > 100 µM (inactive) in [14]; > 100 µM (inactive) in assay [15]; 75.9 µM (inactive) in assay [16]; > 100 µM (inactive) in assay [17]; > 100 µM (inactive) in [18]. The GI50 in [19] and in assay [20] was > 100 µM (inactive) in each case.

For the compound `CCOC(=O)C(=Cc1ccccc1Cl)C(=O)OCC`, the GI50 in assay [1] was 2.02 µM (inactive); in assay [2], 2.9 µM (inactive); in assay [3] it was 1.69 µM (inactive); in [4] it was 2.19 µM (inactive); in assay [5] it was 1.57 µM (inactive); in [6], 1.41 µM (inactive). The GI50 in assay [7] is 0.938 µM (active); in assay [8], 1.6 µM (inactive); in assay [9] it was 2.52 µM (inactive); in assay [10] it was 1.92 µM (inactive); in assay [11], 2.13 µM (inactive); in assay [12] it was 1.83 µM (inactive). Further, the GI50 in assay [13] was 0.547 µM (active); in assay [14] it was 1.82 µM (inactive); in assay [15] it was 5.26 µM (inactive); in assay [16], 1.23 µM (inactive); in assay [17], 1.79 µM (inactive); in assay [18], 2.03 µM (inactive). The GI50 is 1.61 µM (inactive) in assay [19] and 2.89 µM (inactive) in [20].

(Values after ChEMBL document CHEMBL1201862, “PubChem BioAssay data set” (2004).)
